Results from US10463664B2, “Inhibitors of HSV nucleotidyl transferases and uses therefor” (Saint Louis University, priority 2013, dated 2019).
“And” between values parts separate entries of the source, which are not always exact repeats. Equal entries are not always repeated. Where two headings read alike, the source gives them in different places.

Experiments:
[1] = test system: HSV-1; assay: Anti-HSV-1 replication assay in Vero cells, titer by plaque assay; assay type: cell-based, herpes simplex virus 1; settings: for Anti-HSV-1 Log10 suppression 5 μM / Anti-HSV-1 Log10 suppression 50 μM / EC50: moi 0.1, 24 h; for Anti-HSV-1 Log10 suppression 5 μM / Anti-HSV-1 Log10 suppression 50 μM: relative to DMSO; for Control of HSV-1 replication after high moi infection: moi 5, 5 μM
In short: (§1)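 Well lysates titered by plaque assay on Vero cells versus DMSO controls; EC50 by non-linear fit from serial dilutions starting at 50 μM.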

[2] = test system: HSV-2; assay: HSV-2 replication inhibition in primary human foreskin fibroblasts; assay type: cell-based, herpes simplex virus 2; settings: for Replication inhibition HSV-2 5 μM / Replication inhibition HSV-2 50 μM / EC50: HFF cells; for Replication inhibition HSV-2 5 μM / Replication inhibition HSV-2 50 μM: relative to DMSO-treated control
Protocol: (§2) Anti-HSV-1 and -HSV-2 Replication Assay. Compounds to be screened were diluted in PBS supplemented to contain 2% newborn calf serum and 1% glutamine, and added in 100 μL, volume to confluent cell monolayers in 24-well cluster plates. Immediately thereafter HSV-1 and HSV-2, diluted in the supplemented PBS medium, were added to the wells in 50 μl volume such that the final concentration of compound was 50 μM and 5 μM and the multiplicity of infection was 0.1. The plates were incubated at 37° C. for 1 hour and then virus-containing inoculum was removed and the wells were washed once in PBS. Compounds, diluted to 50 μM and 5 μM in DMEM supplemented to contain 2% newborn calf serum and 1% each penicillin/streptomycin, were added at 0.5 mL/well. Plates were incubated at 37° C. an additional 23 hr, and then the plates were visually inspected through a phase contrast microscope for cytopathic effect, and for toxic effect. […] The entire contents of each well were collected by scraping. Samples were frozen at −80° C., and then subsequently thawed, sonicated, and infectious virus titer was determined by standard plaque assay on Vero cell monolayers. Because the compounds were dissolved at 10 mM in 100% DMSO, equivalent dilutions of DMSO were added to additional wells as a control for effects of the diluent. Each experiment was repeated once. EC50 values were determined as above except that serial dilutions of the compound to be tested were prepared starting at 50 μM. The inhibitory values were calculated by non-linear curve-fitting in GraphPad Prism.
(§3) Inhibition of viral replication was next assessed in human foreskin fibroblasts (HFF) to determine whether NTS inhibitors could block HSV-1 and HSV-2 replication in a physiologically relevant, primary human cell type. […] Viral yields 24 hours post-infection were measured by plaque assay.

[3] = test system: HSV-1; assay: HSV-1 replication inhibition in primary human foreskin fibroblasts; assay type: cell-based, herpes simplex virus 1; settings: HFF cells; for Replication inhibition HSV-1 5 μM / Replication inhibition HSV-1 50 μM: relative to DMSO-treated control
Protocol: as §2, §3

[4] = molecular target: T1, human RNaseH1 (Homo sapiens, UniProt O60930); assay: Biochemical inhibition of human RNaseH1 (oligonucleotide-directed RNA cleavage assay); settings: for Anti-Human RNaseH1: compounds at 60, 20 or 10 μM
T1 construct: hexahistidine; made in house; host or cells: E. coli
T1 sequence (O60930 1-286): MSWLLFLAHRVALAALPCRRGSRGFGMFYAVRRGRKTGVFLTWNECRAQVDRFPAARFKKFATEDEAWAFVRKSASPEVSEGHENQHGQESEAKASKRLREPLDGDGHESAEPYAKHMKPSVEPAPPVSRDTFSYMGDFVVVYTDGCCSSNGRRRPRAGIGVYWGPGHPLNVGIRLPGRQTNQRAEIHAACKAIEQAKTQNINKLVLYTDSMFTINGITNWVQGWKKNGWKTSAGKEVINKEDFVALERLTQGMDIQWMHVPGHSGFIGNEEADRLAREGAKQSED
In short: (§4)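 A DNA oligonucleotide was annealed to internally ^32P-labeled RNA, and the heteroduplex was incubated with enzyme alongside compounds at 60, 20 or 10 μM. Cleavage products were resolved by electrophoresis and detected by autoradiography, then quantified against DMSO vehicle reactions.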

[5] = test system: HSV-2; assay: Anti-HSV-2 replication assay in Vero cells, titer by plaque assay; assay type: cell-based, herpes simplex virus 2; settings: for Anti-HSV-2 Log10 suppression 5 μM / Anti-HSV-2 Log10 suppression 50 μM: relative to DMSO; for Control of HSV-2 replication after high moi infection: moi 5, 5 μM, 24 h
In short: as §1

[6] = molecular target: T2, HBV RNaseH (Hepatitis B virus genotype A2 subtype adw2, UniProt P03159); assay: Biochemical inhibition of HBV RNaseH (oligonucleotide-directed RNA cleavage assay); settings: compounds at 60, 20 or 10 μM
T2 construct: One of the inventors recently produced active recombinant HBV RNase H; hexahistidine; made in house; host or cells: E. coli
In short: as §4

[7] = test system: Vero cells; assay: CytoTox-Glo cellular lysis assay in Vero cells; assay type: cell-based; settings: 24 h; read-out: Vero cell toxicity CTG CC50
Protocol: Quantitative toxicity measurements were conducted for all compounds that suppressed HSV replication by approximately 2 login or more at 5 μM plus a number of compounds with lesser inhibitory activity for comparison. Toxicity was assessed by measuring release of intracellular proteases into the culture medium due to cellular lysis. […] Consistent with the subjective assessments of toxicity, all compounds selected for quantitative toxicity assessment had CC50 values ≥50 μM by both the MTT and cellular lysis assays (Table 1).

[8] = test system: Vero cells; assay: MTT mitochondrial toxicity assay in Vero cells; assay type: cell-based; settings: 24 h; read-out: Vero cell toxicity MTT CC50
[9] = test system: HCMV strain AD169; assay: Anti-HCMV CPE inhibition assay (crystal violet) in HFFs; assay type: cell-based, human cytomegalovirus; settings: 14 days; for EC50: read-out: EC50 against HCMV, CPE inhibition assay
Protocol: Anti-HCMV CPE inhibition and cytotoxicity assays. HFFs were infected with HCMV strain AD169 in the presence of serial dilutions of the compounds from 0.0192 to 60 μM. Fourteen days later the monolayers were stained with crystal violet, and retained cell density was quantified using a multiplate autoreader (BioTek). Cytotoxicity was measured the same way, except that the cells were uninfected and neutral red internalization by viable cells was measured.
Antiviral efficacy against HCMV. The ability of select HSV inhibitors to inhibit replication of another major human herpesvirus pathogen, human cytomegalovirus (HCMV) (65) was tested. This was based on the inhibitors strong suppression of HSV-1 and HSV-2 and the prediction that other members of the herpesvirus family would be sensitive to NTS inhibitors due to their shared DNA replication mechanism. Compounds #41, 46, 49, 55, 56, and 59 and the FDA-approved anti-HCMV drug ganciclovir were evaluated with crystal violet CPE and neutral red toxicity assays in HFFs. HFFs were infected with HCMV in the presence of serial dilutions of the compounds that were most inhibitory for HSVs. After 14 days the monolayers were stained and cell density was determined by OD reading. Compound cytotoxicity for uninfected cells was determined in the same manner except that neutral red uptake by viable cells was measured. […] The TI values for the four NTS inhibitors of HCMV ranged from 4 for compound #41 to 38 for #56. Therefore, NTS inhibitors can suppress HCMV replication in addition to inhibiting the HSVs.

[10] = Human alphaherpesvirus 1, Vero, 24 h

T2 sequence (P03159 693-845): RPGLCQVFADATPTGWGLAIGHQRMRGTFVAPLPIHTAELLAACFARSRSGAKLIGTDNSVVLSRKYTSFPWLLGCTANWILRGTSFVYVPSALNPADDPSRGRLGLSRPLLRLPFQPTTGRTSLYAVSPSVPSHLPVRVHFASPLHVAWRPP

SMILES | Anti-HSV-1 Log10 suppression 5 μM ([1]; 5 μM) [log10] | Anti-HSV-1 Log10 suppression 50 μM [1] [log10] | Control of HSV-1 replication after high moi infection ([1]; 24 h) | Replication inhibition HSV-2 5 μM ([2]; 5 μM) [log10] | Replication inhibition HSV-2 50 μM [2] [log10] | Replication inhibition HSV-1 5 μM [3] [log10] | Replication inhibition HSV-1 50 μM [3] [log10] | Anti-Human RNaseH1 [4] | Anti-HSV-2 Log10 suppression 5 μM ([5]; 5 μM, moi 0.1, 24 h) [log10] | Anti-HSV-2 Log10 suppression 50 μM ([5]; moi 0.1, 24 h) [log10] | Control of HSV-2 replication after high moi infection [5] | Anti-HBV RNaseH [6] | EC50 [1] | EC50 [2] [nM] | EC50 [3] [nM] | CC50 [7] [µM] | CC50 [8] [µM] | EC50 ([5]; moi 0.1, 24 h) | EC50 against HCMV, CPE inhibition assay [9] | EC50 [9] [nM] | also measured
Nc1nc2c(ncn2COCCO)c(=O)[nH]1 [ACV, Acyclovir, reference compound] | 4.49 | 5.85 | efficiently controlled virus replication | 4.01 | 6.27 | 5.25 | 6.69 | − (no inhibition at 60 μM) | 3.91 | 5.25 | efficiently controlled virus replication | − (no inhibition at 60 μM) |  |  |  |  |  |  |  |  | EC50 [1, 10]: 210 nM; EC50 ([2]; Human alphaherpesvirus 2): 120 nM; EC50 ([3]; Human alphaherpesvirus 1): 120 nM
CCOc1ccc(-c2c3cc(O)c(=O)cc-3oc3cc(O)c(O)cc23)cc1 [Compound 30] | 1.39 | 4.02 |  | 2.04 | 6.68 | 3.22 | 5.23 | +++ (inhibition at 10 μM) | 3.69 | 4.55 |  | +++ (inhibition at 10 μM) | 5930 nM and 4200 nM | 520 | 320 | > 100 | > 100 | 3930 nM |  |  | Fold less effective inhibition of HSV-2 in HFF cells than in Vero cells ([2]; 5 μM): ~45 fold; Concentration giving inhibition of purified human RNaseH 1 [4]: < 60 µM; Fold more active against HSV-2 than HSV-1 ([5]; 5 μM): > 100 fold
Cc1cc(C2CCCCC2)n(O)c(=O)c1 [Compound 41, Ciclopirox, reference compound] |  | 5.23 |  | 5.21 | 4.97 | 5.06 | 5.57 | + (inhibition at 60 μM) |  | 5.25 |  | − (no inhibition at 60 μM) |  |  |  |  |  |  | very low μM range |  | EC50 ([9]; Human betaherpesvirus 5, AD169, 336 h): 2100 nM; EC50 [1, 10]: 270 nM; Inhibition of HSV-1 replication (in words) ([1]; primary screening): strong inhibitor; Suppression of HSV-2 replication, ciclopirox versus its salt ([2]; HFFs, various concentrations, 24 hours): equivalent extent; EC50 ([2]; Human alphaherpesvirus 2): 1000 nM; EC50 ([3]; Human alphaherpesvirus 1): 140 nM; EC50 ([5]; Human alphaherpesvirus 2, moi 0.1, 24 h): 450 nM; Inhibition of HSV-2 replication (in words) ([5]; primary screening): strong inhibitor
CC(C)c1ccc(O)c(=O)c(O)c1 [Compound 46, Beta-thujaplicinol] |  | 4.81 | efficiently controlled virus replication | 5.17 | 5.83 | 5.83 | 6.39 | + (inhibition at 60 μM) |  | 5.12 | efficiently controlled virus replication | +++ (inhibition at 10 μM) | 1940 nM | 380 | 970 | > 100 | > 100 | 1690 nM | very low μM range | 1400 | 
CC(C)=CCc1ccc(O)c(=O)cc1C(C)C [Compound 49, Nootkatin] |  | 4.72 |  | 5.47 | 5.98 | 5.79 | 6.27 | − (no inhibition at 60 μM) |  | 5.05 |  | − (no inhibition at 60 μM) | 240 nM | 1230 | 740 | > 100 | > 100 | 190 nM and 220 nM | very low μM range | 1700 | 
CC(=O)NC(CCc1ccc(Cl)c(Cl)c1)c1cccc(O)c(=O)c1 (centres unmarked) [Compound 55] |  | 5.04 | efficiently controlled virus replication | 3.94 | 6.55 | 4.99 | 6.17 | + (inhibition at 60 μM) |  | 5.06 | efficiently controlled virus replication | + (inhibition at 60 μM) | 420 nM | 1670 | 2810 | > 100 | > 100 | 1070 nM |  | > 60000 | 
C=C(C)C1CCc2c(c(C)cc(O)c(=O)c2O)C1 (centres unmarked) [Compound 56, Manicol] | 5.14 | 5.82 |  | 5.93 | 6.80 | 5.72 | 6.39 | − (no inhibition at 60 μM) | 5.95 | 5.79 |  | +++ (inhibition at 10 μM) | 350 nM | 550 | 240 | ~100 | > 100 | 580 nM | very low μM range | 38400 | HSV-1 replication inhibition, fold ([1]; 5 μM): 138,000 fold; HSV-2 replication inhibition, fold ([5]; 5 μM): 891,000 fold
